{"source": "patent US20050107451A1", "about": "“Methods for treating conditions, disorders, or diseases involving cell death” (priority 2001, published 2005)", "tested_on": "neurons in brain slices", "type": "cell-based", "conditions": "for NON-STROKE AVERAGE / surviving neurons, NON-STROKE: non-stroke brain slice; for NON-STROKE AVERAGE / STROKE AVG. / surviving neurons, NON-STROKE / surviving neurons, STROKE: 24 hrs exposure; for NON-STROKE AVERAGE / STROKE AVG.: average neuron count; for STROKE AVG. / surviving neurons, STROKE: stroke brain slice; for surviving neurons, NON-STROKE / surviving neurons, STROKE: single count; for neuroprotective properties: stroke and non-stroke brain slices, result in words", "source_text": "A negative and positive control experiments were also run for comparison. In the positive control, a known neuroprotective gene and reporter gene (i.e., a green fluorescent protein) were shot into the stroke and non-stroke brain slices. In the negative control, only the reporter gene (i.e., a green fluorescent protein) was shot into the stroke and non-stroke brain slices. […]\nA negative and positive control experiments were also run for comparison as described above for Example 1. […]\nTwo sets of brain slices were transfected with a plasmid containing a reporter gene (e.g. a green fluorescent protein). […] One of the sets of brain slices was treated under conditions to simulate stroke, and the other brain slice was a non-stroke control. Survival of neurons in the brain slices, as indicated by expression of the reporter molecule, was examined by direct neuron counts after 24 hrs. exposure to the compound.", "note": "Where “and” joins values, the source holds several entries; their conditions need not be identical. Identical values can stand only once. Like-named read-outs stand apart in the source and are kept apart here.", "data": [{"compound": "NC(C(=O)O)c1nnn[nH]1", "note": "(racemic) [(RS)-(Tetrazol-5-yl)glycine]", "values": [{"measurement": "NON-STROKE AVERAGE", "setting": "0.781 uM", "result": 25.6}, {"measurement": "STROKE AVG.", "setting": "0.781 uM", "result": 13.2}, {"measurement": "NON-STROKE AVERAGE", "setting": "1.562 uM", "result": 28.8}, {"measurement": "STROKE AVG.", "setting": "1.562 uM", "result": 17.2}, {"measurement": "NON-STROKE AVERAGE", "setting": "3.125 uM", "result": 50.4}, {"measurement": "STROKE AVG.", "setting": "3.125 uM", "result": 28.2}, {"measurement": "NON-STROKE AVERAGE", "setting": "6.25 uM", "result": 94.8}, {"measurement": "STROKE AVG.", "setting": "6.25 uM", "result": 58.8}, {"measurement": "NON-STROKE AVERAGE", "setting": "12.5 uM", "result": 65.2}, {"measurement": "surviving neurons, NON-STROKE", "setting": "12.5 uM", "result": "71 neurons and 61 neurons and 75 neurons and 56 neurons and 63 neurons"}, {"measurement": "STROKE AVG.", "setting": "12.5 uM", "result": 56.6}, {"measurement": "NON-STROKE AVERAGE", "setting": "25 uM", "result": 78}, {"measurement": "STROKE AVG.", "setting": "25 uM", "result": 53.2}, {"measurement": "NON-STROKE AVERAGE", "setting": "50 uM", "result": 68.8}, {"measurement": "STROKE AVG.", "setting": "50 uM", "result": 89}, {"measurement": "NON-STROKE AVERAGE", "setting": "100 uM", "result": 73.6}, {"measurement": "surviving neurons, NON-STROKE", "setting": "100 uM", "result": "72 neurons and 87 neurons and 64 neurons and 62 neurons and 83 neurons"}, {"measurement": "STROKE AVG.", "setting": "100 uM", "result": 79.6}, {"measurement": "surviving neurons, STROKE", "setting": "100 uM", "result": "95 neurons and 76 neurons and 87 neurons and 66 neurons and 74 neurons"}, {"measurement": "neuroprotective properties", "result": "exhibits neuroprotective properties"}]}, {"compound": "CC=C(C)C(=O)OC1CCC2(C)C3CCC4[C@]5(O)CC(O)[C@@]6(O)C(CN7CC(C)CCC7[C@@]6(C)O)[C@]5(O)C[C@@]42O[C@]13O", "note": "(stereo partly drawn) [Cevadine, (Z)-4α,9-Epoxycevane-3β,4,12,14,16β,17,20-heptol 3-(2-methyl-2-butenoate)]", "values": [{"measurement": "NON-STROKE AVERAGE", "setting": "0.781 uM", "result": 26.25}, {"measurement": "STROKE AVG.", "setting": "0.781 uM", "result": 9.5}, {"measurement": "NON-STROKE AVERAGE", "setting": "1.562 uM", "result": 33.2}, {"measurement": "STROKE AVG.", "setting": "1.562 uM", "result": 9}, {"measurement": "NON-STROKE AVERAGE", "setting": "3.125 uM", "result": 25.6}, {"measurement": "STROKE AVG.", "setting": "3.125 uM", "result": 6.4}, {"measurement": "surviving neurons, STROKE", "setting": "3.125 uM", "result": "9 neurons and 5 neurons and 6 neurons and 7 neurons"}, {"measurement": "NON-STROKE AVERAGE", "setting": "6.25 uM", "result": 27}, {"measurement": "STROKE AVG.", "setting": "6.25 uM", "result": 8.6}, {"measurement": "NON-STROKE AVERAGE", "setting": "12.5 uM", "result": 64}, {"measurement": "STROKE AVG.", "setting": "12.5 uM", "result": 38.5}, {"measurement": "NON-STROKE AVERAGE", "setting": "25 uM", "result": 93.6}, {"measurement": "STROKE AVG.", "setting": "25 uM", "result": 126}, {"measurement": "NON-STROKE AVERAGE", "setting": "50 uM", "result": 118}, {"measurement": "STROKE AVG.", "setting": "50 uM", "result": 86.6}, {"measurement": "NON-STROKE AVERAGE", "setting": "100 uM", "result": 73}, {"measurement": "STROKE AVG.", "setting": "100 uM", "result": 70}, {"measurement": "surviving neurons, STROKE", "setting": "100 uM", "result": "53 neurons and 78 neurons and 77 neurons and 56 neurons and 86 neurons"}, {"measurement": "neuroprotective properties", "result": "exhibits neuroprotective properties"}]}, {"compound": "COC1C(O)[C@H](O[C@H]2CC[C@]3(C)C4CC[C@]5(C)C(C6=CC(=O)OC6)CC[C@]5(O)C4CC[C@@H]3C2)OC(C)[C@@H]1O", "note": "(stereo partly drawn) [Neriifolin, (3β,5β)-3-[(6-Deoxy-3-O-methyl-α-L-glucopyranosyl)oxyl]-14-hydroxycard-20(22)-enolide]", "values": [{"measurement": "NON-STROKE AVERAGE", "setting": "0.781 uM", "result": 35}, {"measurement": "STROKE AVG.", "setting": "0.781 uM", "result": 6.4}, {"measurement": "NON-STROKE AVERAGE", "setting": "1.562 uM", "result": 30.4}, {"measurement": "STROKE AVG.", "setting": "1.562 uM", "result": 10}, {"measurement": "NON-STROKE AVERAGE", "setting": "3.125 uM", "result": 48.2}, {"measurement": "STROKE AVG.", "setting": "3.125 uM", "result": 5.8}, {"measurement": "NON-STROKE AVERAGE", "setting": "6.25 uM", "result": 61}, {"measurement": "STROKE AVG.", "setting": "6.25 uM", "result": 19.8}, {"measurement": "NON-STROKE AVERAGE", "setting": "12.5 uM", "result": 29.75}, {"measurement": "STROKE AVG.", "setting": "12.5 uM", "result": 36.25}, {"measurement": "NON-STROKE AVERAGE", "setting": "25 uM", "result": 60.2}, {"measurement": "surviving neurons, NON-STROKE", "setting": "25 uM", "result": "49 neurons and 66 neurons and 82 neurons and 42 neurons and 62 neurons"}, {"measurement": "STROKE AVG.", "setting": "25 uM", "result": 43.4}, {"measurement": "NON-STROKE AVERAGE", "setting": "50 uM", "result": 32.2}, {"measurement": "STROKE AVG.", "setting": "50 uM", "result": 17.6}, {"measurement": "NON-STROKE AVERAGE", "setting": "100 uM", "result": 15.6}, {"measurement": "STROKE AVG.", "setting": "100 uM", "result": 10.6}, {"measurement": "neuroprotective properties", "result": "exhibits neuroprotective properties"}]}, {"compound": "O=C1O[C@H]([C@@H](O)CO)C([O-])=C1O.[Na+]", "note": "[Sodium Ascorbate, Sodium ascorbate, reference compound]", "values": [{"measurement": "NON-STROKE AVERAGE", "setting": "0.3125 uM", "result": 9.5}, {"measurement": "STROKE AVG.", "setting": "0.3125 uM", "result": 2.5}, {"measurement": "NON-STROKE AVERAGE", "setting": "0.625 uM", "result": 12.5}, {"measurement": "STROKE AVG.", "setting": "0.625 uM", "result": 0.5}, {"measurement": "NON-STROKE AVERAGE", "setting": "1.25 uM", "result": 10.5}, {"measurement": "STROKE AVG.", "setting": "1.25 uM", "result": 0.5}, {"measurement": "NON-STROKE AVERAGE", "setting": "2.5 uM", "result": 8}, {"measurement": "STROKE AVG.", "setting": "2.5 uM", "result": 0.5}, {"measurement": "NON-STROKE AVERAGE", "setting": "5 uM", "result": 19.5}, {"measurement": "STROKE AVG.", "setting": "5 uM", "result": 1}, {"measurement": "NON-STROKE AVERAGE", "setting": "10 uM", "result": 15.5}, {"measurement": "STROKE AVG.", "setting": "10 uM", "result": 2}, {"measurement": "NON-STROKE AVERAGE", "setting": "25 uM", "result": 12.5}, {"measurement": "STROKE AVG.", "setting": "25 uM", "result": 0.5}, {"measurement": "NON-STROKE AVERAGE", "setting": "50 uM", "result": 10}, {"measurement": "STROKE AVG.", "setting": "50 uM", "result": 2}, {"measurement": "NON-STROKE AVERAGE", "setting": "100 uM", "result": 2.5}, {"measurement": "neuroprotective properties", "result": "did not exhibit neuroprotective properties"}]}]}
